Assay results published in US20220395549A1, “COMPOSITIONS OF THE OLEA EUROPAEA V. SYLVESTRIS WITH ANTIMICROBIAL EFFICACY” (TAPROGGE GMBH, priority 2019, published 2022).

What was measured:
S. aureus ATCC 6538 = test: quantitative suspension assay of mono-substances; format: cell-based, Staphylococcus aureus; settings: for Number of CFUs: initial cell load 9.5 × 10^4 CFU/ml
Method: A stock solution was prepared by adding 0.1 ml methanol to 10.48 mg of hydroxytyrosol. After dissolving of the compound, the solution was quantitatively transferred into 4.9 ml water for injection (WFI), effective concentration of hydroxytyrosol: 2.0 mg/ml.
Using the stock solution, five (5) concentrations of hydroxytyrosol in a geometric series of 2 mg hydroxytyrosol/ml to 0.125 mg hydroxytyrosol/ml were tested in a quantitative suspension assay.
2 ml of the stock solution and the dilutions (V1 to V4), respectively, and a methanol-solution of 2% as a positive control were inoculated with 0.1 ml of a test suspension of S. aureus ATCC 6538, adjusted to about 2.0×10^5 CFU/0.1 ml, resulting in about 100,000 CFU/ml in the individual assays.
Samples (0.1 ml) were then taken at t 0, 12, 30, and 60 minutes as well as t 24 48, and 72 hours after inoculation and culturing at between 20-25° C., and were diluted with 0.9 ml of 0.9% NaCl solution. The samples were plated on blood agar plates, and incubated up to 5 days at between 30-35° C.
A stock solution was prepared at a concentration of 2 mg/ml of oleocanthal. The compound was dissolved by in ethanol (99.8%) and WFI was added.
Using the stock solution, concentrations of oleocanthal in a geometric series of 1 mg oleocanthal/ml to 0.125 mg oleocanthal/ml were tested in a quantitative suspension assay.
2 ml of the stock solution and the dilutions (V1 to V4), respectively, and a ethanol-solution of 2.85% as a positive control were inoculated with 0.055 ml of a test suspension of S. aureus ATCC 6538, adjusted to about 3.6×10^5 CFU/0.1 ml, resulting in about 99,000 CFU/ml in the individual assays.
A stock solution was prepared at a concentration of 1 mg/ml of oleacin. The compound was dissolved by in ethanol (99.8%) and WFI was added.
Using the stock solution, concentrations of oleacin at 0.25 mg oleacin/ml and 0.125 mg oleacin/ml were tested in a quantitative suspension assay.
2 ml of the stock solution and the dilutions (V1 and V2), respectively, and a ethanol-solution of 0.44% as a positive control were inoculated with 0.055 ml of a test suspension of S. aureus ATCC 6538, adjusted to about 3.5×10^5 CFU/0.1 ml, resulting in about 99,000 CFU/ml in the individual assays.
A stock solution was prepared by adding 0.1 ml chloroform to 25 mg of uvaol. After dissolving of the compound, the solution was quantitatively transferred into 12.4 ml water for injection (WFI), effective concentration of uvaol: 2.0 mg/ml.
Using the stock solution, five (5) concentrations of uvaol in a geometric series of 2 mg uvaol/ml to 0.125 mg uvaol/ml were tested in a quantitative suspension assay.
2 ml of the stock solution and the dilutions (V1 to V4), respectively, and a chloroform-solution of 0.8% as a positive control were inoculated with 0.1 ml of a test suspension of S. aureus ATCC 6538, adjusted to about 2.0×10^5 CFU/0.1 ml, resulting in about 100,000 CFU/ml in the individual assays.
A stock solution was prepared by adding 0.1 ml chloroform to 10.45 mg of erythrodiol. After dissolving of the compound, the solution was quantitatively transferred into 4.9 ml water for injection (WFI), effective concentration of erythrodiol: 2.0 mg/ml.
2 ml of the stock solution and the dilutions (V1 to V4), respectively, and a chloroform-solution of 2% as a positive control were inoculated with 0.1 ml of a test suspension of S. aureus ATCC 6538, adjusted to about 3.6×10^5 CFU/0.1 ml, resulting in about 100.000 CFU/ml in the individual assays.

[1] = solubility as encountered during the assays; format: physicochemical
From the text: The reduction at the later points in time is due to the natural loss of viability of the bacteria.

solubility [1]: poor solubility
SMILES: CC1(C)CC[C@]2(CO)CC[C@]3(C)C(=CC[C@@H]4[C@@]5(C)CC[C@H](O)C(C)(C)[C@@H]5CC[C@]43C)[C@@H]2C1 [erythrodiol]
Number of CFUs (S. aureus ATCC 6538; 0.125 Ery/ml, t 0 min): >10^4 CFU/ml
Number of CFUs (S. aureus ATCC 6538; 0.125 Ery/ml, t 12 min): >10^4 CFU/ml
Number of CFUs (S. aureus ATCC 6538; 0.125 Ery/ml, t 30 min): >10^4 CFU/ml
Number of CFUs (S. aureus ATCC 6538; 0.125 Ery/ml, t 60 min): >10^4 CFU/ml
Number of CFUs (S. aureus ATCC 6538; 0.125 Ery/ml, t 24 h): >10^4 CFU/ml
Number of CFUs (S. aureus ATCC 6538; 0.125 Ery/ml, t 48 h): >10^4 CFU/ml
Number of CFUs (S. aureus ATCC 6538; 0.125 Ery/ml, t 72 h): >10^4 CFU/ml
Number of CFUs (S. aureus ATCC 6538; 0.25 Ery/ml, t 0 min): 2.8 × 10^4 CFU/ml
Number of CFUs (S. aureus ATCC 6538; 0.25 Ery/ml, t 12 min): 2.9 × 10^4 CFU/ml
Number of CFUs (S. aureus ATCC 6538; 0.25 Ery/ml, t 30 min): 2.0 × 10^4 CFU/ml
Number of CFUs (S. aureus ATCC 6538; 0.25 Ery/ml, t 60 min): 1.7 × 10^4 CFU/ml
Number of CFUs (S. aureus ATCC 6538; 0.25 Ery/ml, t 24 h): >10^4 CFU/ml
Number of CFUs (S. aureus ATCC 6538; 0.25 Ery/ml, t 48 h): >10^4 CFU/ml
Number of CFUs (S. aureus ATCC 6538; 0.25 Ery/ml, t 72 h): >10^4 CFU/ml
Number of CFUs (S. aureus ATCC 6538; 0.5 Ery/ml, t 0 min): 1.9 × 10^4 CFU/ml
Number of CFUs (S. aureus ATCC 6538; 0.5 Ery/ml, t 12 min): 2.0 × 10^4 CFU/ml
Number of CFUs (S. aureus ATCC 6538; 0.5 Ery/ml, t 30 min): 1.8 × 10^4 CFU/ml
Number of CFUs (S. aureus ATCC 6538; 0.5 Ery/ml, t 60 min): 1.0 × 10^4 CFU/ml
Number of CFUs (S. aureus ATCC 6538; 0.5 Ery/ml, t 24 h): >10^4 CFU/ml
Number of CFUs (S. aureus ATCC 6538; 0.5 Ery/ml, t 48 h): >10^4 CFU/ml
Number of CFUs (S. aureus ATCC 6538; 0.5 Ery/ml, t 72 h): >10^4 CFU/ml
Number of CFUs (S. aureus ATCC 6538; 1.0 Ery/ml, t 0 min): <100 CFU/ml
Number of CFUs (S. aureus ATCC 6538; 1.0 Ery/ml, t 12 min): <100 CFU/ml
Number of CFUs (S. aureus ATCC 6538; 1.0 Ery/ml, t 30 min): <100 CFU/ml
Number of CFUs (S. aureus ATCC 6538; 1.0 Ery/ml, t 60 min): <100 CFU/ml
Number of CFUs (S. aureus ATCC 6538; 1.0 Ery/ml, t 24 h): 1.7 × 10^4 CFU/ml
Number of CFUs (S. aureus ATCC 6538; 1.0 Ery/ml, t 48 h): 1.0 × 10^4 CFU/ml
Number of CFUs (S. aureus ATCC 6538; 1.0 Ery/ml, t 72 h): 8.8 × 10^3 CFU/ml
Number of CFUs (S. aureus ATCC 6538; 2.0 Ery/ml, t 0 min): <100 CFU/ml
Number of CFUs (S. aureus ATCC 6538; 2.0 Ery/ml, t 12 min): <100 CFU/ml
Number of CFUs (S. aureus ATCC 6538; 2.0 Ery/ml, t 30 min): <100 CFU/ml
Number of CFUs (S. aureus ATCC 6538; 2.0 Ery/ml, t 60 min): <100 CFU/ml
Number of CFUs (S. aureus ATCC 6538; 2.0 Ery/ml, t 24 h): 8.2 × 10^3 CFU/ml
Number of CFUs (S. aureus ATCC 6538; 2.0 Ery/ml, t 48 h): <100 CFU/ml
Number of CFUs (S. aureus ATCC 6538; 2.0 Ery/ml, t 72 h): <100 CFU/ml
antimicrobial effect, summary in words (S. aureus ATCC 6538; detection limit of the assay 100 CFU/ml): strong effect after incubation at concentrations of 2.0 Ery/ml
